Reference: PubChem BioAssay AID2060625 (Molecular Pharmacology Branch, DTP, NCI, 2025)

Tested on: 186277-243-T-J2-PDC spheroids with HUVEC/MSC, viability
Experiment: Anticancer human tumor 186277-243-T-J2-PDC patient-derived colon adenocarcinoma cell line growth inhibition [CLK]
Details: for IC50: curve of first compound; for viability, T/C: stronger effect = lower value
Outline: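 Patient-derived tumor cells grown as complex spheroids with HUVEC endothelial cells and mesenchymal stem cells, treated with drug combinations. Concentrations descend in half-log steps from near clinical Cmax, or from 10 microM if Cmax unknown.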

[1] = second compound 0.0316 µM, first compound 0.0316 µM
[2] = second compound 0.0316 µM, first compound 0.1 µM
[3] = second compound 0.0316 µM, first compound 0.316 µM
[4] = second compound 0.0316 µM, first compound 1 µM
[5] = second compound 0.0316 µM, first compound 3.16 µM
[6] = second compound 0.0316 µM, first compound 10 µM
[7] = second compound 0.1 µM, first compound 0.0316 µM
[8] = second compound 0.1 µM, first compound 0.1 µM
[9] = second compound 0.1 µM, first compound 0.316 µM
[10] = second compound 0.1 µM, first compound 1 µM
[11] = second compound 0.1 µM, first compound 3.16 µM
[12] = second compound 0.1 µM, first compound 10 µM
[13] = second compound 0.316 µM, first compound 0.0316 µM
[14] = second compound 0.316 µM, first compound 0.1 µM
[15] = second compound 0.316 µM, first compound 0.316 µM
[16] = second compound 0.316 µM, first compound 1 µM
[17] = second compound 0.316 µM, first compound 3.16 µM
[18] = second compound 0.316 µM, first compound 10 µM
[19] = second compound 1 µM, first compound 0.0316 µM
[20] = second compound 1 µM, first compound 0.1 µM
[21] = second compound 1 µM, first compound 0.316 µM
[22] = second compound 1 µM, first compound 1 µM
[23] = second compound 1 µM, first compound 3.16 µM
[24] = second compound 1 µM, first compound 10 µM
[25] = second compound 3.16 µM, first compound 0.0316 µM
[26] = second compound 3.16 µM, first compound 0.1 µM
[27] = second compound 3.16 µM, first compound 0.316 µM
[28] = second compound 3.16 µM, first compound 1 µM
[29] = second compound 3.16 µM, first compound 3.16 µM
[30] = second compound 3.16 µM, first compound 10 µM
[31] = second compound 10 µM, first compound 0.0316 µM
[32] = second compound 10 µM, first compound 0.1 µM
[33] = second compound 10 µM, first compound 0.316 µM
[34] = second compound 10 µM, first compound 1 µM
[35] = second compound 10 µM, first compound 3.16 µM
[36] = second compound 10 µM, first compound 10 µM
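Also: compound exposure lasted seven days before readout.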
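For viability, T/C in this document: 100% = DMSO vehicle control wells.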

## CC(=O)O[C@H]1C(=O)[C@@]2(C)[C@H]([C@H](OC(=O)c3ccccc3)[C@]3(O)C[C@H](OC(=O)[C@H](O)[C@@H](NC(=O)c4ccccc4)c4ccccc4)C(C)=C1C3(C)C)[C@]1(OC(C)=O)CO[C@@H]1C[C@@H]2O + CN1CCN(c2cc(C(=O)Nc3cc4cc(-c5cnn(C)c5)ccc4cn3)ccn2)CC1
Second compound 0.0316 µM
  IC50: < 0.0316 µM
Second compound 0.1 µM
  IC50: < 0.0316 µM
Second compound 0.316 µM
  IC50: < 0.0316 µM
Second compound 1 µM
  IC50: < 0.0316 µM
Second compound 3.16 µM
  IC50: < 0.0316 µM
Second compound 10 µM
  IC50: < 0.0316 µM
[1]
  viability, T/C: 15.6%
[2]
  viability, T/C: 13.7%
[3]
  viability, T/C: 8.66%
[4]
  viability, T/C: 12.4%
[5]
  viability, T/C: 9.25%
[6]
  viability, T/C: 8.97%
[7]
  viability, T/C: 14.4%
[8]
  viability, T/C: 14.6%
[9]
  viability, T/C: 11.3%
[10]
  viability, T/C: 11.4%
[11]
  viability, T/C: 10.2%
[12]
  viability, T/C: 10.2%
[13]
  viability, T/C: 13.3%
[14]
  viability, T/C: 13.2%
[15]
  viability, T/C: 12.5%
[16]
  viability, T/C: 12.5%
[17]
  viability, T/C: 13.6%
[18]
  viability, T/C: 12.1%
[19]
  viability, T/C: 2.45%
[20]
  viability, T/C: 1.65%
[21]
  viability, T/C: 0.61%
[22]
  viability, T/C: 3.85%
[23]
  viability, T/C: 1.22%
[24]
  viability, T/C: 0.69%
[25]
  viability, T/C: 0.85%
[26]
  viability, T/C: 1.39%
[27]
  viability, T/C: 0.92%
[28]
  viability, T/C: 2.55%
[29]
  viability, T/C: 2.07%
[30]
  viability, T/C: 1.24%
[31]
  viability, T/C: 1.95%
[32]
  viability, T/C: 3.43%
[33]
  viability, T/C: 0.65%
[34]
  viability, T/C: 0.96%
[35]
  viability, T/C: 1.3%
[36]
  viability, T/C: 0.72%

## CCCS(=O)(=O)Nc1ccc(F)c(C(=O)c2c[nH]c3ncc(-c4ccc(Cl)cc4)cc23)c1F + CNC(=O)c1ccc(Nc2nc(OC3CCCC3)c3c(-c4ccc5nc(C)oc5c4)c[nH]c3n2)c(OC)c1
Second compound 0.0316 µM
  IC50: > 10 µM
Second compound 0.1 µM
  IC50: 6.98 µM
Second compound 0.316 µM
  IC50: 3.62 µM
Second compound 1 µM
  IC50: < 0.0316 µM
Second compound 3.16 µM
  IC50: < 0.0316 µM
Second compound 10 µM
  IC50: < 0.0316 µM
[1]
  viability, T/C: 105%
[2]
  viability, T/C: 101%
[3]
  viability, T/C: 98.5%
[4]
  viability, T/C: 110%
[5]
  viability, T/C: 103%
[6]
  viability, T/C: 78.8%
[7]
  viability, T/C: 77%
[8]
  viability, T/C: 77.5%
[9]
  viability, T/C: 73.7%
[10]
  viability, T/C: 92.5%
[11]
  viability, T/C: 79.2%
[12]
  viability, T/C: 36.7%
[13]
  viability, T/C: 50.8%
[14]
  viability, T/C: 53%
[15]
  viability, T/C: 58.7%
[16]
  viability, T/C: 63.6%
[17]
  viability, T/C: 51.7%
[18]
  viability, T/C: 25.9%
[19]
  viability, T/C: 38.9%
[20]
  viability, T/C: 38.2%
[21]
  viability, T/C: 39.6%
[22]
  viability, T/C: 44.6%
[23]
  viability, T/C: 36.4%
[24]
  viability, T/C: 27.3%
[25]
  viability, T/C: 33.2%
[26]
  viability, T/C: 37.9%
[27]
  viability, T/C: 37.9%
[28]
  viability, T/C: 37.1%
[29]
  viability, T/C: 33.3%
[30]
  viability, T/C: 21.6%
[31]
  viability, T/C: 37.4%
[32]
  viability, T/C: 39.2%
[33]
  viability, T/C: 36.6%
[34]
  viability, T/C: 34.8%
[35]
  viability, T/C: 31.6%
[36]
  viability, T/C: 24.5%
